Assay results taken from patent US8952024B2, “Herbicidal pyrimidone derivatives” (E I du Pont de Nemours and Company, priority 2009, dated 2015).

Legend:
Format in all cases: in vivo
[1] = system: winter barley (Hordeum vulgare); experiment: Test B postemergence plant response; conditions: for Barley plant response rating (0 to 100 scale): 62 g ai/ha, postemergence, 0 is no effect, 100 is complete control; for Plant response rating, Barley: Postemergence
Summary of the method: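 Plants at the 1- to 4-leaf stage (2 to 18 cm tall), grown in pots of peat moss/vermiculite medium with wetting agent and starter nutrients, received postemergence applications of test chemicals. After 13 to 15 days in a greenhouse, injury was rated visually against untreated controls on a 0 (no effect) to 100 (complete control) scale.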

[2] = system: barnyardgrass (Echinochloa crus-galli); experiment: Test B flooded paddy test; conditions: for Plant response rating, Barnyardgrass: Flood (flooded paddy test), 13 to 15 days
Summary of the method: (§1)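 Greenhouse-held for 13 to 15 days, treated pots were compared visually with controls and scored 0–100 (0, no effect). Treatment had been made into paddy water kept at 3 cm above the soil, with plants at the 2-leaf stage.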

[3] = system: rice (Oryza sativa); experiment: Test B flooded paddy test; conditions: for Plant response rating, Rice: Flood (flooded paddy test), 13 to 15 days
Summary of the method: as §1

[4] = system: ducksalad (Heteranthera limosa); experiment: Test B flooded paddy test; conditions: for Plant response rating, Ducksalad: Flood (flooded paddy test), 13 to 15 days
Summary of the method: as §1

[5] = system: umbrella sedge (Cyperus difformis); experiment: Test B flooded paddy test; conditions: for Plant response rating, Sedge, Umbrella: Flood (flooded paddy test), 13 to 15 days
Summary of the method: as §1

[6] = system: pigweed (Amaranthus retroflexus); experiment: Test A pre-/postemergence plant response
Summary of the method: (§2)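 Seeds planted in loam soil/sand blend; test chemicals in non-phytotoxic solvent mixture with surfactant applied as directed soil spray preemergence and, concurrently, postemergence to plants 2–10 cm tall at one- to two-leaf stage. Greenhouse ~10 days; visual injury vs untreated controls, 0 (no effect) to 100 (complete control).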

[7] = system: giant foxtail (Setaria faberii); experiment: Test A pre-/postemergence plant response
Summary of the method: as §2

[8] = system: barnyardgrass (Echinochloa crus-galli); experiment: Test A pre-/postemergence plant response
Summary of the method: as §2

[9] = system: large crabgrass (Digitaria sanguinalis); experiment: Test A pre-/postemergence plant response
Summary of the method: as §2

[10] = system: corn (Zea mays); experiment: Test A pre-/postemergence plant response
Summary of the method: as §2

[11] = system: velvetleaf (Abutilon theophrasti); experiment: Test A pre-/postemergence plant response
Summary of the method: as §2

[12] = system: morningglory (Ipomoea spp.); experiment: Test A pre-/postemergence plant response
Summary of the method: as §2

[13] = system: wheat (Triticum aestivum); experiment: Test A pre-/postemergence plant response
Summary of the method: as §2

[14] = 31 g ai/ha, 0 to 100 scale (0 no effect, 100 complete control)
[15] = 125 g ai/ha, scale 0 to 100 (0 no effect, 100 complete control)
[16] = 250 g ai/ha, scale 0 to 100 (0 no effect, 100 complete control), 13 to 15 days
[17] = 250 g ai/ha, flooded paddy test, visual rating on 0 to 100 scale (0 no effect, 100 complete control) after 13 to 15 days
[18] = 62 g ai/ha, scale of 0 to 100 where 0 is no effect and 100 is complete control
[19] = Postemergence, 125 g ai/ha, 0 to 100 scale where 0 is no effect and 100 is complete control
[20] = Postemergence, 500 g ai/ha, 0 to 100 scale, 0 = no effect, 100 = complete control, approx. ten days
[21] = Preemergence, 125 g ai/ha, 0 to 100 scale, 0 = no effect, 100 = complete control
[22] = Preemergence, 500 g ai/ha, visual injury, 0 to 100 scale (0 no effect, 100 complete control), approx. ten days
[23] = 125 g ai/ha, scale 0 to 100, 0 is no effect, 100 is complete control
[24] = Flood, 31 g ai/ha, scale 0 to 100 (0 no effect, 100 complete control)
[25] = Postemergence, 500 g ai/ha, visual injury, 0 to 100 scale (0 no effect, 100 complete control), approx. ten days
[26] = Preemergence, 500 g ai/ha, 0 to 100 scale, 0 = no effect, 100 = complete control

COCCCn1c(-c2cccc(Br)c2)ncc(C(=O)C2=C(O)CCCC2=O)c1=O [Compound 140]
75: Plant response rating, Sedge, Umbrella [5, 18]
45: Plant response rating, Flood, Barnyardgrass [2, 17]
60: Plant response rating, Barnyardgrass [8, 21]
20: Plant response rating, Barnyardgrass [2, 18] | Plant response rating, Corn [10, 20]
80: Plant response rating, Pigweed [6, 21] | Plant response rating, Foxtail, Giant [7, 19] | Plant response rating, Velvetleaf [11, 21]
30: Plant response rating, Morningglory [12, 21]
100: Plant response rating, Pigweed [6, 20] | Plant response rating, Pigweed [6, 22] | Plant response rating, Barnyardgrass [8, 22] | Plant response rating, Velvetleaf [11, 19] | Plant response rating, Velvetleaf [11, 20] | Plant response rating, Velvetleaf [11, 22] | Plant response rating, Morningglory [12, 19] | Plant response rating, Morningglory [12, 20]
40: Plant response rating, Flood, Rice [3, 17] | Plant response rating, Foxtail, Giant [7, 21]
90: Plant response rating, Pigweed [6, 19] | Plant response rating, Foxtail, Giant [7, 20] | Plant response rating, Foxtail, Giant [7, 22] | Plant response rating, Barnyardgrass [8, 19] | Plant response rating, Barnyardgrass [8, 20] | Plant response rating, Crabgrass, Large [9, 19] | Plant response rating, Crabgrass, Large [9, 20] | Plant response rating, Crabgrass, Large [9, 22]
0: Barley plant response rating (0 to 100 scale) ([1]; 13 to 15 days) | Plant response rating, Barley [1, 14] | Plant response rating, Barley [1, 15] | Plant response rating, Barley [1, 16] | Plant response rating, Rice [3, 18] | Plant response rating, Corn [10, 19] | Plant response rating, Corn [10, 21] | Plant response rating, Corn [10, 22] | Plant response rating, Wheat [13, 19] | Plant response rating, Wheat [13, 20] | Plant response rating, Wheat [13, 21] | Plant response rating, Wheat [13, 22]
85: Plant response rating, Flood, Ducksalad [4, 17] | Plant response rating, Flood, Sedge, Umbrella [5, 17]
50: Plant response rating, Ducksalad [4, 18] | Plant response rating, Morningglory [12, 22]
70: Plant response rating, Crabgrass, Large [9, 21]

O=C1CCCC(O)=C1C(=O)c1cnc(-c2cc(F)cc(F)c2)n(C2CCCCC2)c1=O [Compound 181]
0: Barnyardgrass plant response rating [2, 24] | Rice plant response rating [3, 24] | Plant response rating, Corn [10, 21] | Plant response rating, Corn [10, 26] | Plant response rating, Morningglory [12, 21] | Plant response rating, Wheat [13, 21]
55: Plant response rating, Barley [1, 16]
30: Plant response rating, Foxtail, Giant [7, 21] | Plant response rating, Morningglory [12, 19] | Plant response rating, Morningglory [12, 26] | Plant response rating, Wheat [13, 19]
10: Plant response rating, Corn [10, 19]
65: Plant response rating, Rice [3, 23]
80: Plant response rating, Foxtail, Giant [7, 26]
60: Wheat plant response rating [13, 25]
40: Barley plant response rating (0 to 100 scale) ([1]; 13 to 15 days)
50: Plant response rating, Barley [1, 15] | Corn plant response rating [10, 25]
85: Ducksalad plant response rating [4, 24] | Plant response rating, Sedge, Umbrella [5, 23]
75: Sedge, Umbrella plant response rating [5, 24]
70: Plant response rating, Barnyardgrass [2, 23] | Plant response rating, Velvetleaf [11, 21]
100: Plant response rating, Pigweed [6, 19] | Pigweed plant response rating [6, 25] | Plant response rating, Pigweed [6, 21] | Plant response rating, Pigweed [6, 26] | Plant response rating, Foxtail, Giant [7, 19] | Foxtail, Giant plant response rating [7, 25] | Plant response rating, Barnyardgrass [8, 19] | Barnyardgrass plant response rating [8, 25] | Plant response rating, Barnyardgrass [8, 26] | Plant response rating, Crabgrass, Large [9, 26] | Plant response rating, Velvetleaf [11, 19] | Velvetleaf plant response rating [11, 25] | Plant response rating, Velvetleaf [11, 26] | Morningglory plant response rating [12, 25]
90: Plant response rating, Ducksalad [4, 23] | Plant response rating, Crabgrass, Large [9, 19] | Crabgrass, Large plant response rating [9, 25] | Plant response rating, Crabgrass, Large [9, 21]
20: Plant response rating, Barnyardgrass [8, 21] | Plant response rating, Wheat [13, 26]
5: Plant response rating, Barley [1, 14]
